Results as given in PubChem BioAssay AID1963841 (Molecular Pharmacology Branch, DTP, NCI, 2024).

Test system: 439559-082-T-J2-PDC spheroid viability
Assay: Anticancer human tumor 439559-082-T-J2-PDC patient-derived colon adenocarcinoma cell line growth inhibition [POLQ]
Settings: spheroids with HUVEC and MSC; for IC50: curve of first compound; for viability, T/C: stronger effect = lower value
Method in brief: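 Patient-derived tumour cells were co-cultured with HUVEC and mesenchymal stem cells as multicellular spheroids at 37 °C. They were treated with POLQ inhibitors (novobiocin, ART-558, RP6685) alone or combined with other agents. Top concentrations were at or near clinical Cmax (otherwise 10 microM; SN-38 at 1 microM), decreasing in half-log steps.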

[1] = second compound 0.0316 µM, first compound 0.00316 µM
[2] = second compound 0.0316 µM, first compound 0.01 µM
[3] = second compound 0.0316 µM, first compound 0.0316 µM
[4] = second compound 0.0316 µM, first compound 0.1 µM
[5] = second compound 0.0316 µM, first compound 0.316 µM
[6] = second compound 0.0316 µM, first compound 1 µM
[7] = second compound 0.1 µM, first compound 0.00316 µM
[8] = second compound 0.1 µM, first compound 0.01 µM
[9] = second compound 0.1 µM, first compound 0.0316 µM
[10] = second compound 0.1 µM, first compound 0.1 µM
[11] = second compound 0.1 µM, first compound 0.316 µM
[12] = second compound 0.1 µM, first compound 1 µM
[13] = second compound 0.316 µM, first compound 0.00316 µM
[14] = second compound 0.316 µM, first compound 0.01 µM
[15] = second compound 0.316 µM, first compound 0.0316 µM
[16] = second compound 0.316 µM, first compound 0.1 µM
[17] = second compound 0.316 µM, first compound 0.316 µM
[18] = second compound 0.316 µM, first compound 1 µM
[19] = second compound 1 µM, first compound 0.00316 µM
[20] = second compound 1 µM, first compound 0.01 µM
[21] = second compound 1 µM, first compound 0.0316 µM
[22] = second compound 1 µM, first compound 0.1 µM
[23] = second compound 1 µM, first compound 0.316 µM
[24] = second compound 1 µM, first compound 1 µM
[25] = second compound 3.16 µM, first compound 0.00316 µM
[26] = second compound 3.16 µM, first compound 0.01 µM
[27] = second compound 3.16 µM, first compound 0.0316 µM
[28] = second compound 3.16 µM, first compound 0.1 µM
[29] = second compound 3.16 µM, first compound 0.316 µM
[30] = second compound 3.16 µM, first compound 1 µM
[31] = second compound 10 µM, first compound 0.00316 µM
[32] = second compound 10 µM, first compound 0.01 µM
[33] = second compound 10 µM, first compound 0.0316 µM
[34] = second compound 10 µM, first compound 0.1 µM
[35] = second compound 10 µM, first compound 0.316 µM
[36] = second compound 10 µM, first compound 1 µM
[37] = second compound 0.0316 µM, first compound 3.16 µM
[38] = second compound 0.0316 µM, first compound 10 µM
[39] = second compound 0.1 µM, first compound 3.16 µM
[40] = second compound 0.1 µM, first compound 10 µM
[41] = second compound 0.316 µM, first compound 3.16 µM
[42] = second compound 0.316 µM, first compound 10 µM
[43] = second compound 1 µM, first compound 3.16 µM
[44] = second compound 1 µM, first compound 10 µM
[45] = second compound 3.16 µM, first compound 3.16 µM
[46] = second compound 3.16 µM, first compound 10 µM
[47] = second compound 10 µM, first compound 3.16 µM
[48] = second compound 10 µM, first compound 10 µM
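Note: spheroids exposed to compounds for seven days before readout.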
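Throughout, for viability, T/C: 100% = DMSO vehicle control viability.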

Work on C=CCn1c(=O)c2cnc(Nc3ccc(N4CCN(C)CC4)cc3)nc2n1-c1cccc(C(C)(C)O)n1 + COC1C(OC(N)=O)C(O)C(Oc2ccc3c(O)c(NC(=O)c4ccc(O)c(CC=C(C)C)c4)c(=O)oc3c2C)OC1(C)C yielded an IC50 (second compound 0.0316 µM) greater than 1000 nM, an IC50 (second compound 0.1 µM) greater than 1000 nM and an IC50 (second compound 0.316 µM) greater than 1000 nM. The IC50 (second compound 1 µM) was greater than 1000 nM, the IC50 (second compound 3.16 µM) was greater than 1000 nM and the IC50 (second compound 10 µM) was greater than 1000 nM. For the same molecule, the viability, T/C [1] was 98.7%, the viability, T/C [2] was 104% and the viability, T/C [3] was 102%. The viability, T/C [4] was 101%, the viability, T/C [5] was 96.1% and the viability, T/C [6] was 80.7%. It also gave a viability, T/C [7] of 112%, a viability, T/C [8] of 106% and a viability, T/C [9] of 102%. The viability, T/C [10] was 102%, the viability, T/C [11] was 91% and the viability, T/C [12] was 79.1%. For the same molecule, the viability, T/C [13] was 102%, the viability, T/C [14] was 102% and the viability, T/C [15] was 105%. It also gave a viability, T/C [16] of 101%, a viability, T/C [17] of 94.5% and a viability, T/C [18] of 86.3%. The viability, T/C [19] was 106%, the viability, T/C [20] was 104% and the viability, T/C [21] was 100%. It also gave a viability, T/C [22] of 97.3%, a viability, T/C [23] of 94.8% and a viability, T/C [24] of 76.3%. It also gave a viability, T/C [25] of 101%, a viability, T/C [26] of 101% and a viability, T/C [27] of 97.2%. For the same molecule, the viability, T/C [28] was 94.6%, the viability, T/C [29] was 102% and the viability, T/C [30] was 85.6%. It also gave a viability, T/C [31] of 100%, a viability, T/C [32] of 93.8% and a viability, T/C [33] of 97.9%. The viability, T/C [34] was 109%, the viability, T/C [35] was 94.8% and the viability, T/C [36] was 72.2%.

CCc1c2c(nc3ccc(O)cc13)-c1cc3c(c(=O)n1C2)COC(=O)[C@]3(O)CC + COC1C(OC(N)=O)C(O)C(Oc2ccc3c(O)c(NC(=O)c4ccc(O)c(CC=C(C)C)c4)c(=O)oc3c2C)OC1(C)C gave an IC50 (second compound 0.0316 µM) of 487 nM, an IC50 (second compound 0.1 µM) of 401 nM and an IC50 (second compound 0.316 µM) of 458 nM. It also gave an IC50 (second compound 1 µM) of 377 nM, an IC50 (second compound 3.16 µM) of 332 nM and an IC50 (second compound 10 µM) of 287 nM. For the same molecule, the viability, T/C [1] was 90.4%, the viability, T/C [2] was 83.8% and the viability, T/C [3] was 69.8%. It also gave a viability, T/C [4] of 69.3%, a viability, T/C [5] of 58.9% and a viability, T/C [6] of 39%. It also gave a viability, T/C [7] of 97.3%, a viability, T/C [8] of 84.3% and a viability, T/C [9] of 70.7%. It also gave a viability, T/C [10] of 66.7%, a viability, T/C [11] of 57.7% and a viability, T/C [12] of 36.6%. The viability, T/C [13] was 98.5%, the viability, T/C [14] was 92.2% and the viability, T/C [15] was 73.1%. It also gave a viability, T/C [16] of 67.9%, a viability, T/C [17] of 58.6% and a viability, T/C [18] of 38.5%. It also gave a viability, T/C [19] of 95.8%, a viability, T/C [20] of 83.7% and a viability, T/C [21] of 65.4%. For the same molecule, the viability, T/C [22] was 63%, the viability, T/C [23] was 59.6% and the viability, T/C [24] was 36.8%. For the same molecule, the viability, T/C [25] was 90.5%, the viability, T/C [26] was 81.3% and the viability, T/C [27] was 71.8%. For the same molecule, the viability, T/C [28] was 62%, the viability, T/C [29] was 52.7% and the viability, T/C [30] was 36.8%. The viability, T/C [31] was 80.8%, the viability, T/C [32] was 82% and the viability, T/C [33] was 64.6%. For the same molecule, the viability, T/C [34] was 61.5%, the viability, T/C [35] was 53.1% and the viability, T/C [36] was 28.3%.

Molecule CNCc1ccc(-c2[nH]c3cc(F)cc4c3c2CCNC4=O)cc1 + COC1C(OC(N)=O)C(O)C(Oc2ccc3c(O)c(NC(=O)c4ccc(O)c(CC=C(C)C)c4)c(=O)oc3c2C)OC1(C)C has an IC50 (second compound 0.0316 µM) greater than 10000 nM, an IC50 (second compound 0.1 µM) greater than 10000 nM and an IC50 (second compound 0.316 µM) greater than 10000 nM. It also gave an IC50 (second compound 1 µM) greater than 10000 nM, an IC50 (second compound 3.16 µM) greater than 10000 nM and an IC50 (second compound 10 µM) greater than 10000 nM. For the same molecule, the viability, T/C [3] was 103%, the viability, T/C [4] was 98.7% and the viability, T/C [5] was 99.4%. It also gave a viability, T/C [6] of 101%, a viability, T/C [37] of 106% and a viability, T/C [38] of 102%. It also gave a viability, T/C [9] of 101%, a viability, T/C [10] of 107% and a viability, T/C [11] of 91.7%. It also gave a viability, T/C [12] of 99.7%, a viability, T/C [39] of 105% and a viability, T/C [40] of 108%. For the same molecule, the viability, T/C [15] was 104%, the viability, T/C [16] was 96% and the viability, T/C [17] was 98.3%. The viability, T/C [18] was 108%, the viability, T/C [41] was 110% and the viability, T/C [42] was 105%. For the same molecule, the viability, T/C [21] was 108%, the viability, T/C [22] was 103% and the viability, T/C [23] was 106%. The viability, T/C [24] was 98.1%, the viability, T/C [43] was 111% and the viability, T/C [44] was 108%. The viability, T/C [27] was 108%, the viability, T/C [28] was 103% and the viability, T/C [29] was 97.4%. The viability, T/C [30] was 95.8%, the viability, T/C [45] was 114% and the viability, T/C [46] was 105%. The viability, T/C [33] was 99.5%, the viability, T/C [34] was 93.7% and the viability, T/C [35] was 95.4%. It also gave a viability, T/C [36] of 104%, a viability, T/C [47] of 115% and a viability, T/C [48] of 98.4%.

Nc1ccn(C2OC(CO)C(O)C2(F)F)c(=O)n1 (stereo not drawn) + COC1C(OC(N)=O)C(O)C(Oc2ccc3c(O)c(NC(=O)c4ccc(O)c(CC=C(C)C)c4)c(=O)oc3c2C)OC1(C)C gave an IC50 (second compound 0.0316 µM) of 488 nM, an IC50 (second compound 0.1 µM) of 477 nM and an IC50 (second compound 0.316 µM) of 422 nM. It also gave an IC50 (second compound 1 µM) of 395 nM, an IC50 (second compound 3.16 µM) of 450 nM and an IC50 (second compound 10 µM) of 411 nM. It also gave a viability, T/C [3] of 81.3%, a viability, T/C [4] of 74.4% and a viability, T/C [5] of 55.7%. For the same molecule, the viability, T/C [6] was 39.5%, the viability, T/C [37] was 29.8% and the viability, T/C [38] was 25.6%. The viability, T/C [9] was 82.2%, the viability, T/C [10] was 74.3% and the viability, T/C [11] was 54.4%. For the same molecule, the viability, T/C [12] was 39.4%, the viability, T/C [39] was 33% and the viability, T/C [40] was 25.3%. For the same molecule, the viability, T/C [15] was 86.1%, the viability, T/C [16] was 76.2% and the viability, T/C [17] was 52.8%. The viability, T/C [18] was 37.5%, the viability, T/C [41] was 33% and the viability, T/C [42] was 25.6%. For the same molecule, the viability, T/C [21] was 81.2%, the viability, T/C [22] was 77.7% and the viability, T/C [23] was 49.2%. The viability, T/C [24] was 39.5%, the viability, T/C [43] was 32.6% and the viability, T/C [44] was 25%. The viability, T/C [27] was 84.5%, the viability, T/C [28] was 73.8% and the viability, T/C [29] was 54.7%. The viability, T/C [30] was 38.5%, the viability, T/C [45] was 31.2% and the viability, T/C [46] was 26.7%. The viability, T/C [33] was 83.1%, the viability, T/C [34] was 70% and the viability, T/C [35] was 53%. The viability, T/C [36] was 38.8%, the viability, T/C [47] was 31.6% and the viability, T/C [48] was 26%.
